These results are taken from US10100055B2, “Imidazopyrroloquinoline salt, method for producing the same, medicament, cosmetic, and food” (Mitsubishi Gas Chemical Company, Inc., priority 2016, dated 2018).

Series [1] is described as follows: Solubility in water or ethanol, by absorbance at 260 nm. It counts as physicochemical. Particulars: thermodynamic from solid. The method, then: The resultants were allowed to stand at the following temperatures (23° C. or 50° C.) for 1 hour, and thereafter centrifuged, and filtered with a filter of 0.5 μm; […] at an absorption wavelength of 260 nm.
The test system of series [2] is Human uterine cancer cells (HeLa cells). Kind of series: Cell activity test (cell counting kit 8). It counts as cell-based. Set-up: number of the human uterine cancer cells (number without sample taken to be 100): dose or concentration left out as unconfirmed. The procedure:
Human uterine cancer cells (HeLa cells) were cultured in an incubator at a 5%-CO2 concentration and at 37° C. Thereafter, the human uterine cancer cells were inoculated to 96 wells so as to become 1000 cells/well, and cultured for one night. Then, a suspension in which the sample of Example 1 was suspended in a phosphate buffer so as to become 1 g/L was used and added so as to become […]. After 2 days, by using a “cell counting kit 8” (trade name, manufactured by Dojindo Laboratories), the number of the human uterine cancer cells was measured. When the number of the human uterine cancer cells 2 days after the culture for one night when the sample of Example 1 was not added was taken to be 100, the number of the cells when the sample of Example 1 in […] was used was 112.

The term solubility denotes how much of the substance goes into solution per volume. Take `N=C(N)NCCCc1nc2c(=O)c3cc(C(=O)O)[nH]c3c3c(C(=O)O)cc(C(=O)O)n1c23` [Example 1, argIPQ disodium trihydrate]: the solubility at 1 h in series [1] (organic solvent or mixture, ethanol, 23° C.) came out at 0.4 mg/mL; in series [1] (water, 23° C.), 37 mg/mL; in series [1] (water, 50° C.), 47 mg/mL. For the same compound, in series [2], the “effect on cell proliferation (in words)” value is on record as “functioned to advance the cell proliferation”. For the same compound, the “number of the human uterine cancer cells (number without sample taken to be 100)” value in series [2] (after 2 days, control = 100) is on record as 112.
